Laboratory results as given in publication PMC5514901, “Synthesis and evaluation of anthranilamide-based derivatives as FXa inhibitors” (Oncotarget, 2017).

Assays:
human FXa = molecular target: T1, human FXa (Homo sapiens, UniProt P00742); test: Inhibition activity measurement against FXa (chromogenic substrate CS-11(22)); format: biochemical; details: for Ki / IC50: human FXa; for IC50: chromogenic substrate, 37°C, read at 405 nm
T1 construct: purchased Hyphen BioMed
Protocol: The inhibition of FXa was measured using human FXa (Hyphen BioMed, city, Paris, FRA) and chromogenic substrate CS-11(22) (Hyphen BioMed, Paris, FRA) in 384-well microtiter plates at room temperature. […] 2 μL of FXa (56.8 nM), 16 μL of Tris buffer (adjust to pH 7.4 with HCl containing 0.3 M NaCl and 50 mM Tris) and 3 μL of test compound were added to the well, respectively. The negative control was composed of the same mixed solutions except replacing test compound with DMSO. […] After incubated at 37°C for 5 min, 8 μL of FXa substrate solution (3.5 mM) was added and then incubated at 37°C for 25 min. The FXa activity was measured at 405 nm using a SpectraMax M5 (Molecular Devices, Sunnyvale, CA, USA). The IC50 was calculated by the software named SPSS (IBM, North Castle, NY, USA) and the Probit function in it.

human plasma = test: Prothrombin time (PT) assay; format: biochemical; details: concentration doubling prothrombin time in human plasma
Protocol: A commercially available automatic coagulometer (Steellex Science Instrument Co., Ltd., Beijing, China) was employed to measure PT. The clotting times were also measured using the instrument itself, in accordance with the manufacturer's instructions. Increasing concentrations of inhibitor or solvent were added to human plasma and incubated for 3 min at 37°C. Prothrombin time (PT) was determined by automatic coagulometer.

human FIIa (thrombin) = tested on: human FIIa (thrombin); parameters: method as in PMID 16305517; details: read-out: IC50 against thrombin; cited from earlier work

T1 sequence (P00742 235-488 limits assumed): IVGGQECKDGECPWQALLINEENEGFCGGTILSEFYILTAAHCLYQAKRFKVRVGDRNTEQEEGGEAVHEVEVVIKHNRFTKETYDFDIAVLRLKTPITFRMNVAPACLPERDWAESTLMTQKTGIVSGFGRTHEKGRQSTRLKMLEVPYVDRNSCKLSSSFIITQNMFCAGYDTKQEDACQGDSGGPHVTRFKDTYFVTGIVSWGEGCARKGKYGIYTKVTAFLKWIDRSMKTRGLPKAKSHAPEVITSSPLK
T1 sequence (P00742 41-179 partner limits assumed): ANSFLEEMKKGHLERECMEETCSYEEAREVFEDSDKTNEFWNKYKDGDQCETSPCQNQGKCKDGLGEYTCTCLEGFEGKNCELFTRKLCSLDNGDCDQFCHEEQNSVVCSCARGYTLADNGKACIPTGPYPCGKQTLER

Row | melting point | Ki (human FXa) | IC50 (human FXa) | FXa inhibitory activity (in words) (human FXa; SAR statement in text) | SMILES | 2 × PT (Human) (human plasma) | IC50 (human FIIa (thrombin))
1 | > 250 °C | 20.5 nM | 28.7 nM |  | O=C(Nc1ccccc1C(=O)Nc1ccc(-n2ccccc2=O)cc1)c1ccc(Br)s1 [6a, 5-bromo-N-(2-((4-(2-oxopyridin-1(2H)-yl)phenyl)carb-amoyl)phenyl)thiophene-2-carboxamide] | 8.4 µM | 
2 | > 250 °C | 13.4 nM | 18.8 nM |  | Cc1ccc(NC(=O)c2ccc(Br)s2)c(C(=O)Nc2ccc(-n3ccccc3=O)cc2)c1 [6a-b, 5-bromo-N-(4-methyl-2-((4-(2-oxopyridin-1(2H)-yl)ph-enyl)carbamoyl)phenyl)thiophene-2-carboxamide] | 4.2 µM | 
3 | > 250 °C |  | 125 nM |  | O=C(Nc1ccc(Cl)cc1C(=O)Nc1ccc(N2CCOCC2=O)cc1)c1ccc(Br)s1 [6a-e, 5-bromo-N-(4-chloro-2-((4-(3-oxomorpholino)phenyl)carbamoyl)phenyl)thiophene-2-carboxamide] | 3.8 µM | 
4 | > 250 °C | 17 nM | 23.8 nM |  | O=C(Nc1ccccc1C(=O)Nc1ccc(-n2ccccc2=O)cc1)c1ccc(Cl)cc1Cl [6k, 2,4-dichloro-N-(2-((4-(2-oxopyridin-1(2H)-yl)phenyl)arbamoyl)phenyl)benzamide] | 16.4 µM | 
5 | > 250 °C | 58.6 nM | 82 nM |  | O=C(Nc1ccc(Cl)cc1C(=O)Nc1ccc(-n2ccccc2=O)cc1)c1ccc(Cl)cc1Cl [6k-a, 2,4-dichloro-N-(4-chloro-2-((4-(2-oxopyridin-1(2H)-yl)phenyl)carbamoyl)phenyl)benzamide] | 16.9 µM | 
6 | > 250 °C | 25.4 nM | 35.5 nM |  | Cc1ccc(NC(=O)c2ccc(Cl)cc2Cl)c(C(=O)Nc2ccc(-n3ccccc3=O)cc2)c1 [6k-b, 2,4-dichloro-N-(4-methyl-2-((4-(2-oxopyridin-1(2H)-yl)phenyl)carbamoyl)phenyl)benzamide] | 11.3 µM | 
7 | > 250 °C |  | > 1000 nM | poor IC50 values at a micromole level | Cc1cccc(C(=O)Nc2ccc(N3CCOCC3=O)cc2)c1NC(=O)c1ccc(Cl)cc1Cl [6k-g, 2-(2,4-dichlorobenzamido)-3-methyl-N-(4-(3-oxomor-pholino)phenyl)benzamide] |  | 
8 | > 250 °C |  | 181 nM |  | COc1ccc(C(=O)Nc2ccccc2C(=O)Nc2ccc(-n3ccccc3=O)cc2)cc1 [6l, 2-(4-methoxybenzamido)-N-(4-(2-oxopyridin-1(2H)-yl)phenyl)benzamide] |  | 
9 | > 250 °C |  | > 1000 nM |  | COc1ccc(C(=O)Nc2ccc(Cl)cc2C(=O)Nc2ccc(-n3ccccc3=O)cc2)cc1 [6l-a, 5-chloro-2-(4-methoxybenzamido)-N-(4-(2-oxopyridin-1(2H)-yl)phenyl)benzamide] |  | 
10 | > 250 °C |  | 452 nM |  | COc1ccc(C(=O)Nc2ccc(C)cc2C(=O)Nc2ccc(-n3ccccc3=O)cc2)cc1 [6l-b, 2-(4-methoxybenzamido)-5-methyl-N-(4-(2-oxopyrid-in-1(2H)-yl)phenyl)benzamide] |  | 
11 | > 250 °C |  | > 1000 nM |  | COc1ccc(C(=O)Nc2c(C)cccc2C(=O)Nc2ccc(-n3ccccc3=O)cc2)cc1 [6l-c, 2-(4-methoxybenzamido)-3-methyl-N-(4-(2-oxopyrid-in-1(2H)-yl)phenyl)benzamide] |  | 
12 | > 250 °C |  | 459 nM |  | COc1ccc(C(=O)Nc2ccccc2C(=O)Nc2ccc(N3CCOCC3=O)cc2)cc1 [6l-d, 2-(4-methoxybenzamido)-N-(4-(3-oxomorpholino)phe-nyl)benzamide] |  | 
13 | > 250 °C |  | 485 nM |  | COc1ccc(C(=O)Nc2ccc(Cl)cc2C(=O)Nc2ccc(N3CCOCC3=O)cc2)cc1 [6l-e, 5-chloro-2-(4-methoxybenzamido)-N-(4-(3-oxomorph-olino)phenyl)benzamide] |  | 
14 | > 250 °C |  | 433 nM |  | COc1ccc(C(=O)Nc2ccc(C)cc2C(=O)Nc2ccc(N3CCOCC3=O)cc2)cc1 [6l-f, 2-(4-methoxybenzamido)-5-methyl-N-(4-(3-oxomorph-olino)phenyl)benzamide] |  | 
15 | > 250 °C |  | > 1000 nM |  | COc1ccc(C(=O)Nc2c(C)cccc2C(=O)Nc2ccc(N3CCOCC3=O)cc2)cc1 [6l-g, 2-(4-methoxybenzamido)-3-methyl-N-(4-(3-oxomorph-olino)phenyl)benzamide] |  | 
16 | > 250 °C |  | > 1000 nM |  | COc1ccc(C(=O)Nc2ccccc2C(=O)Nc2ccc(-n3ccccc3=O)cc2)cc1OC [6m, 3,4-dimethoxy-N-(2-((4-(2-oxopyridin-1(2H)-yl)phenyl)arbamoyl)phenyl)benzamide] |  | 
17 | > 250 °C |  | > 1000 nM |  | COc1cc(C(=O)Nc2ccccc2C(=O)Nc2ccc(-n3ccccc3=O)cc2)cc(OC)c1OC [6n, 3,4,5-trimethoxy-N-(2-((4-(2-oxopyridin-1(2H)-yl)phenyl)carbamoyl)phenyl)benzamide] |  | 
18 | > 250 °C |  | > 1000 nM |  | O=C(Nc1ccccc1C(=O)Nc1ccc(-n2ccccc2=O)cc1)c1ccc(C(F)(F)F)cc1 [6o, N-(4-(2-oxopyridin-1(2H)-yl)phenyl)-2-(4-(trifluoro-methyl)benzamido)benzamide] |  | 
19 |  |  |  |  | O=C(NC[C@H]1CN(c2ccc(N3CCOCC3=O)cc2)C(=O)O1)c1ccc(Cl)s1 [rivaroxaban, reference compound] | 0.2 µM | 6900 nM
